Assay results reported in patent US4021545A, “Complement inhibitors” (priority 1976, dated 1977).
Where “and” joins values, the source holds several entries; their conditions need not be identical. Equal values may be shown once.

How the values were obtained:
[1] = system: complement in pool of guinea pig serum; experiment: Cap 50 Test; format: biochemical; conditions: in vitro, undiluted guinea pig serum, capillary tube assay
Procedure: (§1) This test measures the ability of activated human C1 to destroy fluid phase human C2 in the presence of C4 and appropriate dilutions of the test compound. […] Inhibition of the shunt pathway results in failure of lysis; (iv) Forssman Test -- Here, the well known complement dependent lesion, Forssman vasculitis, is produced in guinea pigs by intradermal injection of rabbit anti-Forssman antiserum. […] The complement level is determined in undiluted serum by the capillary tube method of U.S. Pat. No. 3,876,376 and compared to undosed control guinea pigs; and (vii) Cap 50 Test -- Here, appropriate amounts of the test compound are added to a pool of guinea pig serum in vitro, after which the undiluted serum capillary tube assay referred to above is run.

[2] = system: whole complement; conditions: 200 mg/kg, percent inhibition of serum complement vs simultaneous controls
Procedure: With reference to Table I, guinea pigs weighing about 300 g were dosed intravenously (IV) or intraperitoneally (IP) with 200 mg/kg of the test compound dissolved in saline and adjusted to pH 7-8. One hour after dosing, the guinea pigs were decapitated, blood was collected and the serum separated. The serum was tested for whole complement using the capillary tube assay. Percent inhibition was calculated by comparison with simultaneous controls.

[3] = system: shunt pathway activated by cobra venom factor; format: cell-based; conditions: serial two-fold dilution assay; higher well number indicates higher activity; human erythrocytes in autologous serum
Procedure: as §1

[4] = system: late components of human complement (C3-C9); experiment: Test, Code 035 (C3-C9 inhibitor); format: biochemical; conditions: serial two-fold dilution assay; higher well number indicates higher activity; lysis of EAC 142
Procedure: as §1

[5] = system: activated human C1; experiment: Test, Code 026 (C1 inhibitor); format: biochemical; conditions: serial two-fold dilution assay; higher well number indicates higher activity
Procedure: as §1

| Substance | Cap 50 [1] | In Vivo Activity Guinea Pig (IV) 2 Hr. ([2]; 2 Hr.) | In Vivo Activity Guinea Pig (IV) 30 Hr. ([2]; 30 Hr.) | In Vivo Activity Guinea Pig (IV) 120 Hr. ([2]; 120 Hr.) | Shunt Inhibit. 036 [3] [wells] | C-Late 035 [4] | Cl 026 [5] |
| --- | --- | --- | --- | --- | --- | --- | --- |
| Inulin, poly(H-sulfate)salt with triethylamine | 160 | -97 | -95 | -91 | 5 | 5 wells | 8 wells |
| Inulin, poly(H-sulfate)salt with trimethylamine | 131 | – | – | – | 5 | 6 wells | 8 wells |
| Inulin, poly(H-sulfate)sodium salt [INULIN, POLY(H-SULFATE) SODIUM SALT] | 100 and 94 and 92 | – | – | – | 5 | 5 wells and 7 wells | 7 wells and 10 wells |
